# In patent publication US20210213135A1 (Purdue Research Foundation, priority 2018, published 2021):
# Bridges are numbered along the chain shown (N, C = ends). Primed or numbered codes have the meaning given here. Where no end group is shown, it is not given here. [ ]: non-standard residue; d: D form. mp4″ = 4 mini PEG linker (mini-PEG spacer); PEG10′ = polyethylene glycol 10 linker; minipeg = minipeg spacer; Dap = NC[C@H](N)C(=O)O
# Assays:
# [1] = system: Swiss Webster fracture-bearing mice (fracture callus); test: micro CT of the fracture callus in the femur fracture model; format: in vivo
# [2] = system: Swiss Webster fracture-bearing mice (healed femur); test: postmortem 4 point bend of the healed femur; format: in vivo
# Description: All in vivo data included herein are from Swiss Webster mice. All mice received an osteotomy on their right femur and received subcutaneous drug administration daily for either 2,3 or 4 weeks, or 17 days, as indicated, for each compound. 1× concentration represents 1 nmol/day, 10× represents 10 nmol/day, 100× represents 100 nmol/day most studies have an n of 5.
# The term “Peak Load” means a postmortem 4 point bend of the healed femur. Peak load represents the maximum force the healed femur withstood before it refractured.
# The targeted conjugates were synthesized using standard Fmoc solid-phase peptide synthesis, as described above. To ensure the conjugates' activity, mouse pre-osteoblast ([…]) cells were treated with the targeted and untargeted compounds for three days at concentrations from 1 pM to 100 nM. After three days of treatment, the cells were harvested, and the RNA was purified from the cells. Expression levels of ALP, RUNx2 (transcription factor for osteoblast differentiation), osterix (OSX), osteopontin (OPN), collagen 1A (Col-1A), OPG, RANKL, sclerostin gene (SOST), and OC were quantified via quantitative reverse transcription polymerase chain reaction (RT-qPCR). Once the biological activity of the conjugates was confirmed, they were tested in vivo in a fracture model. Aseptic surgical techniques were used to place a 23-gage needle as in intramedullary nail in the femur of anesthetized, 12-week-old Swiss Webster mice for internal fixation before fracture. Femur fractures were induced using a drop weight fracture device from RISystem. The mice received buprenorphine for three days post fracture. The mice were dosed subcutaneously each day for three weeks or 17 days. Fracture healing was assessed using microCT (Scanco Medical Ag). Morphometric parameters were quantified in the 100 widest slices of the fracture callus. Trabecular thickness (Tb.Th.), trabecular spacing (Tb.Sp.), total volume (TV), and volume of calcified callus (BV) were calculated. Fractured femurs were tested for strength in a four-point bend to failure using an Electro Force TestBench (TA Instruments). Lower supports were 10 mm apart on the anterior face of the femur in contact with the proximal and distal diaphysis. Upper supports were 4 mm apart and spanned the entire fracture callus on the diaphysis. Force was applied from the posterior face of the femur with a displacement rate of 0.3 mm/sec. Peak load, yield load, stiffness, displacement post yield, work to fracture, and deformation data were generated. Statistical analysis was performed using a two-way analysis of variance (ANOVA) and a Tukey post-hoc analysis with significance reported at the 95% confidence level. All animal experiments were performed in accordance with protocols approved by Purdue University's Institutional Animal Care and Use Committee (IACUC).
# [3] = 2 weeks, 1, 10 and 100 nmol/day
# [4] = 3 weeks, 1, 10 and 100 nmol daily s.c., n=5
# [5] = 3 weeks, 0.1, 1 and 10 nmol daily s.c.
# [6] = 3 weeks, 1 and 10 nmol daily s.c., n=10
# [7] = 4 weeks, 1, 10 and 100 nmol/day
# [8] = 3 weeks, 0.1, 1 and 10 nmol daily s.c., n=5
# [9] = 17 days, 0.1, 1 and 10 nmol daily s.c., n=5
# [10] = 17 days, 1, 10 and 100 nmol daily s.c., n=5
substance,measurement,setting,value
"BFP-D10: SEQ ID NO: 1, bone forming peptide conjugated with 10 aspartate acids: DDDDDDDDDDGQGFSYPYKAVFSTQ (BFP D10)",BV/TV,[1]; [3],dose dependent manner
same,TbSp,[1]; [3],dose dependent manner
same,Peak load of fractured femurs,"[2]; after 2 weeks, 100 nmol/day (100×), compared to PBS",obtained the maximum peak load
"CBD_MP4_(D)E10: SEQ ID NO: 32, 1-28 of osteopontin followed by 4 peg 2 spacers followed by ten d glutamic acids (HNGVFKYRPRYYLYKHAYFYPHLKRFPVQEEEEEEEEEE; 4 PEG2 spacers; D-glutamic acids; CBD _MP4_e10)",BV/TV,[1]; [4],raises bone density
same,Tbth (trabecular thickness),[1]; [4],raises bone quality
same,Work to fracture,[2]; [4],improves bone strength
"CBM D10: SEQ ID NO: 9, collagen binding motif of osteopontin conjugated with 10 aspartate acids",BV/TV,[1]; [5],dose dependent manner
"CBM(1-19)_D10: SEQ ID NO: 31, truncated version (1-19) of the collagen binding motif of human osteopontin targeted by D10 (HDDDDDDDDDDGLRSKSKKFRRPDIQYPDA; CBM(1-19)-D10 collagen binding motif)",BV/TV,[1]; [4],raises bone density
same,Tbth (trabecular thickness),[1]; [4],raises bone quality
same,Max load (peak load),[2]; [4],improves bone strength
"CNP D10: SEQ ID NO: 7, C-type Natriuretic peptide conjugated with 10 aspartate acids (HDDDDDDDDDDGLSKGCFGLKLDRIGSMSGLGC; disulfide 17-33)",BV/TV,"[1]; 4 weeks, 1 and 10 nmol/day",dose dependent manner
"CTC_mp4_(D)E10: SEQ ID NO: 21, CTC linked via 4 minipegs to 10 (D) glutamic acids (H[dE][dE][dE][dE][dE][dE][dE][dE][dE][dE][minipeg][minipeg][minipeg][minipeg]IAGVGGEKSGGF)",BV/TV,[1]; [6],raises bone density
same,Max load (peak load),[2]; [6],raises bone strength
same,Work to fracture,[2]; [6],raises bone strength
"CTC_peg10_(D)E10: SEQ ID NO: 20, chemotactic collagen fragment CTC linked via polyethylene glycol 10 to 10 (D) glutamic acids (H[dE][dE][dE][dE][dE][dE][dE][dE][dE][dE][PEG10′]IAGVGGEKSGGF)",BV/TV,[1]; [5],raises bone density
same,Max load (peak load),[2]; [4],improves bone strength
"DGEA_mp4_(D)E10: SEQ ID NO: 24, DGEA with Serine and Proline on C terminus, 4 minipeg spacers and ten d glutamic acids (H[dE][dE][dE][dE][dE][dE][dE][dE][dE][dE][minipeg][minipeg][minipeg][minipeg]DGEASP)",BV (bone volume),[1]; [4],raises bone mineralization
same,BV/TV,[1]; [4],raises bone density
same,Max load (peak load),[2]; [4],raises bone strength
same,Work to fracture,[2]; [4],raises bone strength
"Ghrelin-D10: SEQ ID NO: 5, Ghrelin D10 with Ser-3 replaced with diaminopropionic acid (HG[Dap]FLSPEHQKAQQRKESKKPPAKLQPRDDDDDDDDDD; ends and bridges not checked)",BV/TV,[1]; [7],dose dependent manner
"IKVAV_mp4_(D)E10: SEQ ID NO: 26, laminin fragment IKVAV conjugated via 4 minipegs with 10 glutamic acids (H[dE][dE][dE][dE][dE][dE][dE][dE][dE][dE][minipeg][minipeg][minipeg][minipeg]GQAASIKVAVSADR)",BV/TV,[1]; [5],raises bone density
same,BV (bone volume),[1]; [8],raises bone mineralization
same,Max load (peak load),[2]; [8],raises bone strength
same,Work to fracture,[2]; [8],raises bone strength
"LN2_P3_mp4_(D)E10: SEQ ID NO: 27, laminin a2 motif DLTIDDSYWYRI with N terminally attached minipeg 4 spacer and targeting ligand (H[dE][dE][dE][dE][dE][dE][dE][dE][dE][dE][mp4″]DLTIDDSYWYRI)",BV (bone volume),[1]; [9],raises bone mineralization
same,BV/TV,[1]; [9],raises bone density
same,Max load (peak load),[2]; [9],raises bone strength
same,Work to fracture,[2]; [9],raises bone strength
"MGF D10: SEQ ID NO: 11, Mechano-growth factor with 10 aspartate acids: DDDDDDDDDDYQPPSTNKNTKSQRRKGSTFEEHK (Mechano-growth factor (MGF) D10, an IGF-I fragment)",BV/TV,"[1]; 4 weeks, 1 and 10 nmol/day",dose dependent manner
"ODP D10: SEQ ID NO: 13, Osteopontin-derived peptide conjugated with 10 aspartate acids (DDDDDDDDDD[mp4″]DVDVPDGRGDSLAYG)",BV/TV,"[1]; 4 weeks, 1 nmol/day",healing was reflected as BV/TV
"OGP-D10: SEQ ID NO: 2, osteogenic growth peptide conjugated with 10 aspartate acids: DDDDDDDDDDALKRQGRTLYGFGG (OGP D10)",BV/TV,"[1]; 2 weeks, 1 and 100 nmol/day",dose dependent manner
same,TbSp,"[1]; 2 weeks, 1 and 100 nmol/day",dose dependent manner
same,TbTh,"[1]; 2 weeks, 1 and 100 nmol/day",dose dependent manner
"P3_mp4_(D)E10: SEQ ID NO: 29, P3 fragment of bone sialoprotein followed by a 4 minipeg spacer and 10 (D) glutamic acids (HYESENGEPRGDNYRAYEEEEEEEEEE; 4 minipeg spacer; D-glutamic acids; P3_mp4_e10)",BV (bone volume),[1]; [10],raises bone mineralization
same,BV/TV,[1]; [10],raises bone density
same,Max load (peak load),[2]; [10],raises bone strength
same,Work to fracture,[2]; [10],raises bone strength
"P4 D10: SEQ ID NO: 10, P4 (knuckle epitope fragment of hBMP-2) conjugated with 10 aspartate acids (HKIPKASSVPTELSAISTLYLDDDDDDDDDD; P4 D10-a BMP2 fragment)",BV (bone volume),"[1]; 4 weeks, 1 nmol/day",healing was reflected
same,BV/TV,"[1]; 4 weeks, 1 and 10 nmol/day",dose dependent manner
"P-15_(D)E10: SEQ ID NO: 22, P15 collagen fragment conjugated with 10 glutamic acids (HGTPGPQGIAGQRGVV[dE][dE][dE][dE][dE][dE][dE][dE][dE][dE])",BV/TV,[1]; [5],raises bone density
same,Max load (peak load),[2]; [8],raises bone strength
"P-15_mp4_(D)E10: SEQ ID NO: 23, a P15 fragment connect via 4 peg2 spacers to (D)E10 bone targeting ligand (HGTPGPQGIAGQRGVVEEEEEEEEEE; 4 PEG2 spacers; D-glutamic acids; P15_mp4_e10)",BV (bone volume),[1]; [4],raises bone mineralization
same,BV/TV,[1]; [4],raises bone density
same,Max load (peak load),[2]; [4],raises bone strength
same,Work to fracture,[2]; [4],raises bone strength
"PHSRN_mp4_(D)E10: SEQ ID NO: 28, fibronectin peptide PHSRN with (D)e10 targeting ligand attached to N terminus via minipeg spacer (H[dE][dE][dE][dE][dE][dE][dE][dE][dE][dE][mp4″]PHSRN)",BV (bone volume),[1]; [9],raises bone mineralization
same,BV/TV,[1]; [9],raises bone density
same,Max load (peak load),[2]; [9],raises bone strength
same,Work to fracture,[2]; [9],raises bone strength
"Preptin D10: SEQ ID NO: 3, Preptin conjugated with 10 aspartate acids (HDVSTSQAVLPDDFPRYDDDDDDDDDD; Preptin D10)",BV (bone volume),[1]; [3],dose dependent manner
same,BV/TV,[1]; [3],dose dependent manner
same,TbTh,[1]; [3],dose dependent manner
"VIP D10: SEQ ID NO: 8, Vasoactive intestinal peptide conjugated with D10 (HHSDAVFTDNYTRLRKQMAVKKYLNSILNDDDDDDDDDD; Vasoactive intestinal peptide with D10 (VIP D10))",BV/TV,"[1]; 4 weeks, 1 nmol/day",healing was reflected as BV/TV
same,TbTh,"[1]; 4 weeks, 1 nmol/day",healing was reflected
"pBMP9 D10: SEQ ID NO: 6, peptide from knuckle epitope of human BMP-9 targeted with D10 (CGGKVGKACCVPTKLSPISVLYK[mp4″]DDDDDDDDDD; cysteine pairing not given here)",BV (bone volume),[1]; [7],dose dependent manner
same,BV/TV,[1]; [7],dose dependent manner
